Our source for the IL-10 and IL-23 values is US8575165B2, “Methods for treating inflammatory disorders using 2,4-pyrimidinediamine compounds” (Rigel Pharmaceuticals, Inc., priority 2009, dated 2013).

The test system of one experiment is IL-10. Briefly: In vitro IL-10 assay: IL-10 ELISA of supernatant from IFNγ-primed THP-1 cells stimulated with SAC. The format is cell-based, human. More on the design: key: “+” indicates an increase in production; “−” indicates a decrease in production. To be noted: effect on expression level of IL-10 in THP-1 cells primed with IFNγ and stimulated with 0.01% SAC; test compound 0.01 μM to 20 μM. As for the experimental part: (§1) Exponentially growing THP-1 cells were plated (100K/well in 100 μL) in standard RPMI media (1% P/S+10% FBS) containing 50 ng/mL IFNγ (1000 U/mL) onto a white clear bottom 96 well plate and leave the cells in 37° C. incubator for 24 h.
(§2) After 24 h incubation, 100 μL of RPMI media containing 2× concentrated test compound per well was added to the above cell-culture media (final concentration of test compound was from 0.01 μM to 20 μM). The plates were pre-incubated for 1 h at 37° C. before being stimulated with SAC.
(§3) After 1 h compound pre-incubation, 10 μL per well of 20× concentrated SAC solution in RPMI media was added to give a final concentration of 0.01%, the plates were shaken and incubated at 37° C. for an additional 18 h.
(§4) 155 μL of the supernatant was harvested from each well and to the remaining 50 μL/well of the cell culture plate was added 50 μL of CELL TITER GLO® reagent. The plates were incubated for 1-2 minutes on a shaker and read for luminescence intensity to determine the compound cytotoxicity.
(§5) The cell culture supernatant collected above was used to carry out IL23 ELISA (65 μL-Supernatant) and IL10 ELISA (90 μL-Supernatant) as described below.
C. Human IL-10 ELISA Protocol (e-Biosciences)
Cell Culture Supernatant (90 μL from THP-1 cells primed with IFNγ (50 ng/mL-1000 U/mL) and stimulated with 0.01% SAC)
To 10.5 mL PBS was added 50 μL of anti-IL10 capture antibody (2.5 μg/mL), mixed well and 100 μL of the coating solution was added to each well of the 96 well white plates from Pierce. The plates were covered and incubated overnight at 4° C.
The anti-IL10 antibody-coated plates were washed 2× using TBST (use plate washer) and blocked the using 200 μL of 0.5% Casein for 1.5-2 h at RT with shaking.
The plates were washed 2× using TBST and the supernatant (100 μL/well) was transferred to the above pre-blocked/IL10-antibody-coated 96 well plate and incubated at RT for 1.5 h with shaking.
The plate was washed 4× using TBST (plate washer) and 100 μL/well detection antibody solution prepared from 2 μL of biotin labeled anti-IL-10 antibody in 11 mL 1% BSA/PBS solution (1-5000 dilution) was added. The plates were incubated for 1 hour with shaking at RT.
(§6) Again, the plate was washed 4× with TBST and 100 μL of HRP labeled Streptavidin (R&D Systems) solution (10 μL/10 mL 1% BSA solution) was added and incubated at RT for another 45 min with shaking.
After 45 min, the plate was washed with TBST 4× and 100 uL/well Super Signal ELISA Pico Chemiluminescent Substrate from Pierce (3.5 mL A+3.5 mL B+3.5 mL MQ water) was added, the plate was shaken for 1-2 minutes then read on a plate reader to quantify the amount of IL-10 secreted by the cells.

A further experiment relates to IL-23. Briefly: In vitro IL-23 assay: IL-23 (p19/p40) ELISA of supernatant from IFNγ-primed THP-1 cells stimulated with SAC. The format is cell-based, human. More on the design: key: “+” indicates an increase in production; “−” indicates a decrease in production. To be noted: effect on expression level of IL-23 in THP-1 cells primed with IFNγ and stimulated with 0.01% SAC; test compound 0.01 μM to 20 μM. As for the experimental part: as §1, §2, §3, §4, §5
B. Human IL-23 (p19/p40) ELISA Protocol (e-Biosciences)
Cell Culture Supernatant (65 μL from THP-1 cells primed with IFNγ (50 ng/mL-1000 U/mL) and stimulated with 0.01% SAC)
To 10.5 mL PBS was added 50 μL of anti-IL23 (p19) capture antibody (2.5 μg/mL), mixed well and 100 μL of the coating solution was added to each well of the 96 well white plates from Pierce, cover and incubate overnight at 4° C.
The anti-IL23 (p19)-antibody-coated plates were washed 2× using TBST (use plate washer) and the plates were blocked using 200 μL of 0.5% Casein for 1.5-2 h at room temperature with shaking.
The plates were washed 2× using TBST and the supernatant (65 μL/well) was transferred to the above pre-blocked/IL23(p19)-antibody-coated 96 well plate and incubated at RT for 1.5 h with shaking.
The plate was washed 4× using TBST (plate washer) and 100 μL/well of detection antibody solution was added. The detection antibody solution was prepared from 2 μL of biotin labeled anti-IL-12 (p40/p70) antibody in 11 mL 1% BSA/PBS solution (1-5000 dilution). The plates were incubated for 1 hour with shaking at RT.
as §6
After 45 min, the plate was washed with TBST 4× and 100 μL/well Super Signal ELISA Pico Chemiluminescent Substrate from Pierce (3.5 mL A+3.5 mL B+3.5 mL MQ water) was added, the plate was shaken for 1-2 minutes then read on a plate reader to quantify the amount of IL-23 secreted by the cells.
In general terms: ELISA stands for enzyme-linked immunosorbent assay.

On to `CCOC(=O)c1cnc(Nc2ccc(N3CCN(S(C)(=O)=O)CC3)c(C(F)(F)F)c2)nc1NC1CC(C)(C)N(C)C(C)(C)C1` [Compound 18], for which the IL-10 result with IL-10 was “+”. Further, the IL-23 entry in the experiment on IL-23 is given as “−”. For `CN1CCN(c2ccc(Nc3ncc(F)c(NC4CC(C)(C)N(C)C(C)(C)C4)n3)cc2Cl)CC1` [Compound 6], the IL-10 result in the experiment with IL-10 is reported as “+”.

Take `CN1C(C)(C)CC(Nc2nc(Nc3ccc(N4CCN(S(C)(=O)=O)CC4)c(OC(F)F)c3)ncc2F)CC1(C)C` [Compound 13]: the IL-10 entry in the experiment on IL-10 is “+”. Same read-out and setting: as for `CN1C(C)(C)CC(Nc2nc(Nc3ccc(N4CCN(S(C)(=O)=O)CC4)c(Cl)c3)ncc2F)CC1(C)C` [Compound 5], the entry is “+”. `CN1C(C)(C)CC(Nc2nc(Nc3ccc(N4CCN(S(C)(=O)=O)CC4)c(Cl)c3)ncc2C#N)CC1(C)C` [Compound 23]: the IL-10 result in the experiment on IL-10 is reported as “+”. In addition, the IL-23 result with IL-23 is “−”.

For `CN1C(C)(C)CC(Nc2nc(Nc3ccc(N4CCN(S(C)(=O)=O)CC4)c(C(F)(F)F)c3)ncc2C#N)CC1(C)C` [Compound 22], the IL-10 result with IL-10 is “+”. Still for that read-out and setting: as for `CN1C(C)(C)CC(Nc2nc(Nc3ccc(N4CCN(S(C)(=O)=O)CC4)c(Cl)c3)ncc2C(F)(F)F)CC1(C)C` [Compound 26], the entry is “+”. The same measure, in the same setting: as for `CN1C(C)(C)CC(Nc2nc(Nc3ccc(N4CCN(S(=O)(=O)C5CC5)CC4)c(Cl)c3)ncc2F)CC1(C)C` [Compound 15], the entry is “+”. On the same count and under the same terms, as for `CN1C(C)(C)CC(Nc2nc(Nc3ccc(N4CCN(S(C)(=O)=O)CC4)c(C(F)(F)F)c3)ncc2[N+](=O)[O-])CC1(C)C` [Compound 20], the entry is “+”; as for `CN1C(C)(C)CC(Nc2nc(Nc3ccc(N4CCN(S(C)(=O)=O)CC4)c(C#N)c3)ncc2C#N)CC1(C)C` [Compound 24], “+”. In the case of `CN1C(C)(C)CC(Nc2nc(Nc3ccc(N4CCN(S(=O)(=O)C5CC5)CC4)c(C(F)(F)F)c3)ncc2F)CC1(C)C` [Compound 11], the IL-10 entry with IL-10 is reported as “+”. On to `CN1CCN(c2ccc(Nc3ncc(F)c(NC4CC(C)(C)N(C)C4(C)C)n3)cc2C(F)(F)F)CC1` (centres unmarked) [Compound 4], for which, in the experiment on IL-10, the IL-10 entry is reported as “−”. In addition, in the experiment with IL-23, the IL-23 entry was “−”. `CN1C(C)(C)CC(Nc2nc(Nc3ccc(N4CCN(S(C)(=O)=O)CC4)c(C(F)(F)F)c3)ncc2F)CC1(C)C` [Compound 10]: in the experiment on IL-10, the IL-10 entry is “+”. Still for that read-out and setting: as for `CCN1C(=O)C(F)(F)Oc2cc(Nc3ncc(F)c(NC4CC(C)(C)N(C)C(C)(C)C4)n3)ccc21` [Compound 16], the entry is “+”. For `CCOC(=O)c1cnc(Nc2ccc(N3CCN(S(C)(=O)=O)CC3)c(Cl)c2)nc1NC1CC(C)(C)N(C)C(C)(C)C1` [Compound 19], the IL-10 result in the experiment on IL-10 is reported as “+”. Besides, the IL-23 result in the experiment with IL-23 is “−”. The matching figures for `CN1C(C)(C)CC(Nc2nc(Nc3ccc(N4CCN(S(C)(=O)=O)CC4)c(C(F)(F)F)c3)ncc2F)C1(C)C` (centres unmarked) [Compound 3]: “+” and “−”. Turning to `COc1ccc(Nc2ncc(F)c(NC3CC(C)(C)N(C)C(C)(C)C3)n2)cc1OC(F)F` [Compound 14], the IL-10 result with IL-10 is “+”.

In the case of `CN1CCN(c2ccc(Nc3ncc(F)c(NC4CC(C)(C)N(C)C(C)(C)C4)n3)cc2C(F)(F)F)CC1` [Compound 2], the IL-10 entry in the experiment on IL-10 is listed as “−”. The IL-23 result in the experiment on IL-23 was “−”. On to `CN1C(C)(C)CC(CNc2nc(Nc3ccc(N4CCN(S(C)(=O)=O)CC4)c(C(F)(F)F)c3)ncc2F)C1(C)C` (centres unmarked) [Compound 7], for which, in the experiment with IL-10, the IL-10 entry is given as “+”. In addition, the IL-23 entry with IL-23 was “−”. The matching figures for `CN1C(C)(C)CC(Nc2nc(Nc3ccc(N4CCN(S(C)(=O)=O)CC4)c(C(F)(F)F)c3)ncc2C(F)(F)F)CC1(C)C` [Compound 25]: “+” and “−”. With `CN1C(C)(C)CC(Nc2nc(Nc3ccc(N4CCN(S(C)(=O)=O)CC4)c(Cl)c3)ncc2[N+](=O)[O-])CC1(C)C` [Compound 21], the IL-10 result in the experiment with IL-10 is recorded as “+”. On the same count and under the same terms, as for `CN1C(C)(C)CC(Nc2nc(Nc3ccc(S(=O)(=O)N4CCNCC4)c(Cl)c3)ncc2F)CC1(C)C` [Compound 9], the entry is “+”; as for `CN1C(C)(C)CC(Nc2nc(Nc3ccc(N4CCN(S(C)(=O)=O)CC4)c(C#N)c3)ncc2F)CC1(C)C` [Compound 12], “+”. For `CN1CCN(S(=O)(=O)c2ccc(Nc3ncc(F)c(NC4CC(C)(C)N(C)C(C)(C)C4)n3)cc2Cl)CC1` [Compound 8], in the experiment on IL-10, the IL-10 result is “+”. Besides, the IL-23 result in the experiment with IL-23 is “−”. As to `CN1C(C)(C)CC(Nc2nc(Nc3ccc(N4CCN(S(C)(=O)=O)CC4)c(C(F)(F)F)c3)ncc2F)CC1(C)C` [Compound 1], the IL-23 entry in the experiment with IL-23 was “−”. As for `CN1CCN(c2ccc(Nc3ncc(F)c(NC4CC(C)(C)N(C)C(C)(C)C4)n3)cc2Cl)CC1` [Compound 17], the IL-10 result in the experiment with IL-10 is on record as “−”.
